In PMC11277489, “Novel Piperazine Derivatives of Vindoline as Anticancer Agents” (International Journal of Molecular Sciences, 2024):

How the values were obtained:
[1] = tested on: 60 human tumor cell lines (NCI60); test: NCI60 one-dose screen (10 μM), whole panel; type: cell-based; settings: 10 μM one-dose, NCI60
[2] = tested on: SiHa cell line; design: method as in PMID 32102414; settings: cited from earlier work

Row | Compound | antiproliferative effect (in words) [1] | IC50 [2] [nM]
1 | CCC12C=CCN3CCC4(c5cc(N)c(OC)cc5N(C)C4C(O)(C(=O)OC)C1OC(C)=O)C32 (centres unmarked) [Compound 11, 10-aminovindoline] | a notable antiproliferative effect was not shown | 
2 | CC[C@]12C=CCN3CC[C@@]4(c5ccc(OC)cc5N(C)[C@H]4[C@@](O)(C(=O)OC)[C@@H]1OC(=O)CCCN1CCN(CCCC(=O)O[C@@H]4[C@]5(CC)C=CCN6CC[C@@]7(c8ccc(OC)cc8N(C)[C@H]7[C@@]4(O)C(=O)OC)[C@@H]65)CC1)[C@@H]32 [Compound 4] |  | 2850
